According to the supplement of paper PMC10307832:

Tests used:
Assay in all cases: relative viability (nuclei count vs DMSO), 5 days (fraction); higher = more cells survive
[1] = compound: Cc1cnc(CNC(=O)c2c(=O)c3ccc(N4CCCN(C)CC4)nc3n3c2sc2ccccc23)cn1 [CX-5461] + CS(=O)(=O)CCNCc1ccc(-c2ccc3ncnc(Nc4ccc(OCc5cccc(F)c5)c(Cl)c4)c3c2)o1 [Lapatinib] (partner 2 µM)
Procedure, shortened: (§1)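 The day after seeding in 1536-well plates, lung cancer cell lines were treated by pin tool with a single drug, or with a fixed anchor-drug dose together with five library-drug doses (not always all listed) in √10 steps. After 5 days, a combined fix-and-stain solution (final 0.05% Triton X-100, 1% formaldehyde, 1 ug/ml Hoechst) was added. Nuclei counted on 4× images gave relative viability as treated counts over vehicle counts, reported as the median of duplicate plates.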

[2] = compound: O=C(Nc1cc(C(F)(F)F)cc(C(F)(F)F)c1)c1cc(Cl)ccc1O [IMD-0354] + O=C(c1cc(Cc2n[nH]c(=O)c3ccccc23)ccc1F)N1CCN(C(=O)C2CC2)CC1 [Olaparib] (partner 8 µM)
Procedure, shortened: as §1

[3] = compound: O=C(Nc1cc(C(F)(F)F)cc(C(F)(F)F)c1)c1cc(Cl)ccc1O [IMD-0354] + C[C@@H](Oc1cc(-c2cnn(C3CCNCC3)c2)cnc1N)c1c(Cl)ccc(F)c1Cl [Crizotinib] (partner 1 µM)
Procedure, shortened: as §1

[4] = compound: Cc1cnc(CNC(=O)c2c(=O)c3ccc(N4CCCN(C)CC4)nc3n3c2sc2ccccc23)cn1 [CX-5461] + Cc1nc(Nc2ncc(C(=O)Nc3c(C)cccc3Cl)s2)cc(N2CCN(CCO)CC2)n1 [Dasatinib] (partner 0.075 µM)
Procedure, shortened: as §1

Cell Line	relative viability ([1]; first compound 0.01 µM)	relative viability ([1]; first compound 0.03162 µM)	relative viability ([1]; first compound 0.1 µM)	relative viability ([1]; first compound 0.3162 µM)	relative viability ([1]; first compound 1 µM)	relative viability ([2]; first compound 0.04 µM)	relative viability ([2]; first compound 0.1265 µM)	relative viability ([2]; first compound 0.4 µM)	relative viability ([2]; first compound 1.265 µM)	relative viability ([2]; first compound 4 µM)	relative viability ([3]; first compound 0.04 µM)	relative viability ([3]; first compound 0.1265 µM)	relative viability ([3]; first compound 0.4 µM)	relative viability ([3]; first compound 1.265 µM)	relative viability ([3]; first compound 4 µM)	relative viability ([4]; first compound 0.01 µM)	relative viability ([4]; first compound 0.03162 µM)	relative viability ([4]; first compound 0.1 µM)	relative viability ([4]; first compound 0.3162 µM)	relative viability ([4]; first compound 1 µM)
201T	1.01	1.06	1.03	0.82	0.981	0.872	0.833	0.532	0.849	0.291	1.09	1.02	0.815	1	0.389	0.652	0.555	0.537	0.542	0.477
A549	0.989	1.04	0.698	0.867	0.0911	0.365	0.555	0.108	0.0898	0.0605	0.834	0.764	0.265	0.0905	0.121	–	–	–	–	–
A-427	1.06	0.999	1.04	–	0.908	0.847	0.809	0.494	0.128	0.15	0.877	0.793	0.519	0.185	0.139	0.811	0.8	0.758	–	0.539
ABC-1	1.17	1.32	1.04	–	1.05	1.13	0.823	0.404	–	0.427	1.42	1.22	0.765	0.221	0.269	0.697	0.582	0.45	0.384	0.449
BEN	0.77	0.647	0.821	0.487	0.54	1.07	0.975	0.782	0.437	0.394	0.856	0.8	0.463	0.366	0.299	0.322	0.271	0.313	0.377	0.279
CAL-12T	0.697	0.673	0.486	0.247	0.617	0.728	0.705	0.492	0.181	0.203	0.855	0.472	0.395	0.16	0.214	0.521	0.356	0.329	0.39	0.205
COR-L23	1.08	0.833	0.674	0.804	0.414	0.298	0.32	0.286	0.104	0.127	0.616	0.532	0.302	0.193	0.131	0.477	0.495	0.438	0.46	0.226
COR-L 105	0.363	0.405	0.376	0.265	0.267	0.644	0.666	0.62	0.562	0.443	0.856	0.906	0.538	0.55	0.261	0.3	0.356	0.299	0.325	0.255
Calu-6	1.04	1.16	0.964	0.998	0.405	0.555	0.57	0.428	0.138	0.111	0.842	0.689	0.506	0.276	0.164	–	–	–	–	–
ChaGo-K-1	–	–	–	–	–	0.34	0.455	0.375	0.241	0.218	1.16	1.26	0.788	0.398	0.433	0.57	0.57	0.575	0.469	0.253
EBC-1	0.214	0.191	0.244	0.2	0.208	0.616	0.661	0.503	0.183	0.171	0.19	0.204	0.208	0.209	0.177	–	–	–	–	–
EKVX	0.228	0.206	0.196	–	0.198	0.964	0.755	–	0.634	0.204	1.01	0.993	–	1.07	0.246	0.55	0.522	0.481	0.554	0.477
EMC-BAC-2	0.861	1.04	0.88	0.693	0.588	0.456	0.511	0.327	0.226	0.26	0.869	0.677	0.586	0.415	0.27	0.335	0.319	0.296	0.282	0.155
EPLC-272H	0.936	1.12	0.9	–	1.02	1.16	0.495	0.599	0.106	0.38	1.04	0.787	0.67	0.822	0.225	0.327	0.364	0.387	–	0.412
H3255	0.237	0.236	0.263	0.167	0.236	0.49	0.541	0.435	0.37	0.318	0.781	0.885	0.555	0.338	0.285	0.482	0.295	0.34	0.334	0.304
HARA	0.904	0.921	0.84	0.861	0.348	0.455	0.697	0.935	0.167	0.311	1.05	0.921	0.53	0.158	0.208	0.308	0.246	0.213	–	0.213
HCC-15	0.886	0.914	0.869	0.264	0.605	0.576	0.69	0.474	0.317	0.157	0.872	0.83	0.486	0.274	0.119	0.673	0.666	0.655	0.617	0.229
HCC-44	0.972	1.01	0.994	1.01	0.69	0.994	1.04	0.571	0.789	0.296	0.893	0.785	0.361	0.169	0.169	–	–	–	–	–
HCC-78	1	0.916	0.734	0.244	0.565	0.814	0.744	0.649	1.04	0.291	0.317	0.323	0.251	0.37	0.189	0.431	0.381	0.406	0.421	0.322

Cell Line	relative viability ([1]; first compound 0.01 µM)	relative viability ([1]; first compound 0.03162 µM)	relative viability ([1]; first compound 0.1 µM)	relative viability ([1]; first compound 0.3162 µM)	relative viability ([1]; first compound 1 µM)	relative viability ([2]; first compound 0.04 µM)	relative viability ([2]; first compound 0.1265 µM)	relative viability ([2]; first compound 0.4 µM)	relative viability ([2]; first compound 1.265 µM)	relative viability ([2]; first compound 4 µM)	relative viability ([3]; first compound 0.04 µM)	relative viability ([3]; first compound 0.1265 µM)	relative viability ([3]; first compound 0.4 µM)	relative viability ([3]; first compound 1.265 µM)	relative viability ([3]; first compound 4 µM)	relative viability ([4]; first compound 0.01 µM)	relative viability ([4]; first compound 0.03162 µM)	relative viability ([4]; first compound 0.1 µM)	relative viability ([4]; first compound 0.3162 µM)	relative viability ([4]; first compound 1 µM)
HCC-366	1.14	1	0.812	0.04	0.0982	0.363	0.371	0.231	0.053	0.0706	0.586	0.858	0.225	0.105	0.0509	0.678	0.597	0.627	0.68	0.106
HCC-827	0.198	0.223	0.22	0.203	0.19	0.55	0.614	0.482	0.372	0.21	1	0.881	0.736	0.498	0.263	0.346	0.277	0.349	0.35	0.298
HOP-62	1.11	1.12	1.23	0.167	0.908	0.262	0.413	0.347	0.15	0.0835	0.999	1.09	0.926	0.546	0.168	0.724	0.661	0.704	0.675	0.489
IA-LM	0.692	0.748	0.715	0.669	0.475	0.829	0.729	0.521	0.161	0.133	0.948	0.974	0.51	0.0996	0.142	–	–	–	–	–
LC-2-ad	0.971	1.02	0.816	0.685	0.476	0.699	0.71	0.466	0.364	0.223	0.431	0.466	0.37	0.358	0.239	0.59	0.713	0.546	0.406	0.27
LCLC-97TM1	1.17	1.02	0.871	–	0.366	0.407	0.387	0.213	0.154	0.141	–	0.432	0.211	0.265	0.146	0.755	0.873	0.791	–	0.701
LCLC-103H	–	–	–	–	–	0.79	0.739	0.566	0.45	0.379	1.02	1.18	0.734	0.703	0.352	0.527	0.583	0.384	0.609	0.53
LK-2	–	1.06	1.01	–	0.817	0.695	1.02	–	0.526	0.172	0.22	0.201	0.28	0.29	0.244	0.258	0.229	0.251	–	0.195
LOU-NH91	0.63	0.811	0.747	0.442	0.68	0.938	0.447	0.285	0.147	0.282	0.754	0.732	0.538	0.345	0.287	0.677	0.511	0.602	–	0.532
NCI-H441	–	–	–	–	–	0.537	0.541	0.604	0.186	0.194	0.573	0.713	0.514	0.363	0.202	0.593	0.486	0.747	0.419	0.364
NCI-H522	–	–	–	–	–	0.517	0.716	0.625	0.46	0.333	–	–	–	–	–	0.886	1.04	0.916	–	0.742
NCI-H1299	0.945	0.975	1	0.982	0.866	0.767	0.969	0.505	0.193	0.16	0.943	1	0.518	0.294	0.166	–	–	–	–	–
NCI-H1395	0.955	0.899	0.716	0.571	0.563	0.449	0.464	0.466	0.361	0.337	–	–	–	–	–	0.402	0.414	0.418	0.39	0.367
NCI-H1563	0.889	0.852	0.661	0.683	0.477	–	–	–	–	–	0.904	0.774	0.822	0.484	0.44	0.461	0.426	0.464	0.444	0.444
NCI-H1648	–	–	–	–	–	0.528	0.484	0.565	0.677	0.225	–	–	–	–	–	–	–	–	–	–
NCI-H1703	1.2	1.45	1.1	1.14	0.502	0.405	0.468	0.358	0.108	0.0868	0.9	0.626	0.494	0.254	0.215	–	–	–	–	–
NCI-H1793	0.693	0.628	0.819	0.399	0.643	0.856	0.797	0.399	0.213	0.251	–	–	–	–	–	0.347	0.409	0.368	–	0.343
NCI-H2342	–	–	–	–	–	0.432	0.478	0.356	0.38	0.432	–	–	–	–	–	0.311	0.317	0.308	0.335	0.285
SW 900	–	–	–	–	–	0.928	0.948	0.66	0.212	0.258	–	–	–	–	–	0.45	0.541	0.701	0.4	0.211
